Results taken from US10464896B2, “Efflux-pump inhibitors and therapeutic uses thereof” (Basilea Pharmaceutica International AG, priority 2015, dated 2019).

Key:
Type in all cases: cell-based
E. coli ATCC25922 = assay: Antibacterial activity in combination with minocycline (growth inhibition); details: Escherichia coli, ATCC25922, compound at 25 μM; minocycline 0.25 μg/mL; OD625 23 h minus 1 h; read-out: residual growth of E. coli ATCC25922 (% of uninhibited control) with minocycline
How it was run: (§1)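 Test compound combined with fixed subinhibitory partner antibiotic: linezolid 128 μg/mL for either strain, minocycline 0.25 μg/mL (E. coli) or 8 μg/mL (P. aeruginosa), in caMHB shaken at 37 °C. Residual growth as % of inhibitor-free control, from OD625 at 23 h minus 1 h.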

P. aeruginosa PAO1 [1] = assay: Antibacterial activity in combination with linezolid (growth inhibition); details: Pseudomonas aeruginosa, PAO1, compound at 50 μM; linezolid 128 μg/mL; OD625 23 h minus 1 h; read-out: residual growth of P. aeruginosa PAO1 (% of uninhibited control) with linezolid
Procedure: Antibacterial activity in combination with minocycline or with linezolid
Inhibition of growth was measured with E. coli ATCC25922 and P. aeruginosa PAO1 in a 96-well plate format. Cation-adjusted Müller-Hinton broth (caMHB) was inoculated with an overnight culture and incubated at 37° C. on a shaker until OD625 reached 0.6 to 0.7. Density was adjusted to OD600=0.5 by addition of caMHB. 35 μL of the suspension were diluted to 35 mL with caMHB and supplemented with minocycline at the subinhibitory doses of 0.25 μg/mL for E. coli and 8 μg/mL for P. aeruginosa or with linezolid at the subinhibitory dose of 128 μg/mL for E. coli and P. aeruginosa. Each well contained 1 μL of test compound in 100 μL caMHB with minocycline or with linezolid.
Plates were incubated at 37° C. on a plate shaker. OD625 was measured at 1 h, 6 h, and at 23 h.
The difference between OD at 23 h and at 1 h was taken as measure for cell density and compared to controls without inhibitor (i.e. uninhibited control). Results were expressed as residual growth (% of uninhibited control). Enhancement of minocycline or linezolid activity caused reduced residual growth.

P. aeruginosa PAO1 [2] = assay: Antibacterial activity in combination with minocycline (growth inhibition); details: Pseudomonas aeruginosa, PAO1, compound at 50 μM; minocycline 8 μg/mL; OD625 23 h minus 1 h; read-out: residual growth of P. aeruginosa PAO1 (% of uninhibited control) with minocycline
How it was run: as §1

Clc1ccc(COc2ccc(CNCC3CNC3)cc2)c(Br)c1 [Example 36]
activity at 25 µM (E. coli ATCC25922): ≤ 10%
activity at 50 µM (P. aeruginosa PAO1 [1]): ≤ 50%

Clc1ccc(COc2ccc(CNCC3CCNC3)cc2)c(Br)c1 (stereo not shown) [Example 63]
activity at 25 µM (E. coli ATCC25922): ≤ 10%
activity at 50 µM (P. aeruginosa PAO1 [1]): ≤ 50%

Clc1ccc(COc2cc(CNCC3CNC3)cc(OCC3CC3)c2)c(Cl)c1 [Example 166]
activity at 25 µM (E. coli ATCC25922): ≤ 10%
activity at 50 µM (P. aeruginosa PAO1 [1]): ≤ 50%

CC(C)Oc1cc(C[N+](C)(C)CC2CCNC2)cc(OCc2ccc(Cl)cc2Br)c1 (stereo not shown) [Example 167]
activity at 25 µM (E. coli ATCC25922): ≤ 10%
activity at 50 µM (P. aeruginosa PAO1 [1]): ≤ 50%

NCC1CCC(CNCc2cccc(OCc3ccc(Cl)cc3Br)c2)N1 (stereo not shown) [Example 192]
activity at 50 µM (P. aeruginosa PAO1 [2]): ≤ 50%
activity at 25 µM (E. coli ATCC25922): ≤ 10%
activity at 50 µM (P. aeruginosa PAO1 [1]): ≤ 50%

Clc1ccc(COc2cc(CNCC3CCNC3)cc(OCCc3c[nH]cn3)c2)c(Br)c1 (stereo not shown) [Example 251]
activity at 25 µM (E. coli ATCC25922): ≤ 10%
activity at 50 µM (P. aeruginosa PAO1 [1]): ≤ 50%

CC(C)(C)c1ccc(COc2cc(CNCC3CNC3)cc(C(F)(F)F)c2)cc1 [Example 273]
activity at 25 µM (E. coli ATCC25922): ≤ 10%
activity at 50 µM (P. aeruginosa PAO1 [1]): ≤ 50%

C=CCOc1cc(/C=C/c2cccc(C#N)c2)cc(CNCC2CCNC2)c1 (stereo not shown) [Example 305]
activity at 25 µM (E. coli ATCC25922): ≤ 10%
activity at 50 µM (P. aeruginosa PAO1 [1]): ≤ 50%

CC(C)COc1cc(/C=C/c2cccnc2)cc(CNCC2CCNC2)c1 (stereo not shown) [Example 332]
activity at 50 µM (P. aeruginosa PAO1 [2]): ≤ 50%
activity at 25 µM (E. coli ATCC25922): ≤ 10%
activity at 50 µM (P. aeruginosa PAO1 [1]): ≤ 50%

CC(C)COc1cc(/C=C/c2ccc(C(N)=O)cc2)cc(CNCC2CCNC2)c1 (stereo not shown) [Example 337]
activity at 25 µM (E. coli ATCC25922): ≤ 10%
activity at 50 µM (P. aeruginosa PAO1 [1]): ≤ 50%

C[N+](C)(Cc1cc(OCCc2c[nH]cn2)cc(OCc2ccc(Cl)cc2Br)c1)CC1CNC1 [Example 389]
activity at 25 µM (E. coli ATCC25922): ≤ 10%
activity at 50 µM (P. aeruginosa PAO1 [1]): ≤ 50%

C[N+](C)(Cc1cc(OCCc2c[nH]cn2)cc(OCc2ccc(Cl)cc2Br)c1)CC1CCNC1 (stereo not shown) [Example 404]
activity at 25 µM (E. coli ATCC25922): ≤ 10%
activity at 50 µM (P. aeruginosa PAO1 [1]): ≤ 50%

CC(C)COc1ccc(/C=C/c2ccc(Cl)cc2Br)cc1CNCC1CNC1 [Example 432]
activity at 25 µM (E. coli ATCC25922): ≤ 10%
activity at 50 µM (P. aeruginosa PAO1 [1]): ≤ 50%

C=CCOc1cc(/C=C/c2ccc(Cl)cc2Br)cc(C(=O)NCCNC(=O)C2CNC2)c1 [Example 454]
activity at 25 µM (E. coli ATCC25922): ≤ 10%
activity at 50 µM (P. aeruginosa PAO1 [1]): ≤ 50%

C=CCOc1cc(/C=C/c2cncc(C(=O)N(C)C)c2)cc(CNCC2CCNC2)c1 (stereo not shown) [Example 467]
activity at 50 µM (P. aeruginosa PAO1 [2]): ≤ 50%
activity at 50 µM (P. aeruginosa PAO1 [1]): ≤ 50%

Oc1ncc(/C=C/c2ccc(Cl)cc2Br)cc1CNCC1CCNC1 (stereo not shown) [Example 494, 5-[(E)-2-(2-bromo-4-chloro-phenyl)vinyl]-3-[(pyrrolidin-3-ylmethylamino)methyl]pyridin-2-ol]
activity at 25 µM (E. coli ATCC25922): ≤ 10%
activity at 50 µM (P. aeruginosa PAO1 [1]): ≤ 50%
